The values that follow come from patent US11987575B2, “Tricyclic compounds as BCR-ABL inhibitors” (ASCENTAGE PHARMA (SUZHOU) CO., LTD., priority 2019, dated 2024).

The target in one test is BaF3(WT) (Homo sapiens, UniProt P00519). Description: WST (CCK-8) anti-proliferative assay, BaF3 WT. The conditions noted are these: read-out: BaF3(WT); BaF3 WT cells, 72 h treatment, CCK-8 readout OD 450 nm.
For a further test, the target named is BaF3 (T315I mutant) (Homo sapiens, UniProt P00519, T315I, cells depend on it). In words: WST (CCK-8) anti-proliferative assay, BaF3 T315I mutant. The conditions noted are these: read-out: BaF3 (T315I mutant), 72 h treatment, CCK-8 readout OD 450 nm.

Protocol for BaF3 (T315I mutant): (§1) The anti-proliferative effect of representative compounds of the present disclosure was determined by a water-soluble tetrazolium (WST)-based assay using Cell Counting Kit-8 (CCK-8). Cells were seeded in 96-well plates and treated with different concentrations of test articles for 72 h. Each treatment was tested in triplicate. Briefly, a series of 9 concentrations were chosen for each test article and added at 100 μl/well into a 96-well plate. Each concentration was tested in triplicate. 100 μl of diluent was added into 3-6 wells in the same plate for cell control group, and another set of 3-6 wells was used as a blank control.
(§2) In each well, 100 μl of cell suspension (containing optimal cell numbers, which creates approximately 100% confluence of cells in control wells based on by the absorbance (OD) value) was dispensed into the same 96-well plate except for the blank well. The plate was then cultured at 37° C. in an incubator in an atmosphere with 5% CO2 for 72 h. At the end of the treatments, 20 μl/well of CCK-8 reagent was directly added to each well. The plate was then incubated at 37° C. in an incubator in an atmosphere with 5% CO2 for 2-4 hours.
(§3) The cells viability was calculated using the mean OD value of triplicated wells following the equation below: (OD sample−OD blank)/(OD cell control−OD blank)×100 IC50 values were calculated with Graphpad Prism 6.0 software using nonlinear regression (curve fitting) type data analysis.
Protocol for BaF3(WT): as §1, §2, §3

As to `CC(C)N1c2c(-c3ccn[nH]3)cc(C(=O)Nc3ccc(OC(F)(F)Cl)cc3)cc2C2CCC(O)C21` (stereo not shown) [Compound 1, N-(4-(chlorodifluoromethoxy)phenyl)-3-hydroxy-4-isopropyl-5-(1H-pyrazol-5-yl)-1,2,3,3a,4,8b-hexahydrocyclopenta[b]indole-7-carboxamide], the results for the GI50 on BaF3(WT) and at BaF3 (T315I mutant) were 17 nM and 192 nM, respectively.

In the case of `CC(C)N1c2c(-c3ccn[nH]3)cc(C(=O)Nc3ccc(OC(F)(F)Cl)cc3)cc2C2CCCC21` (stereo not shown) [Compound 2, N-(4-(chlorodifluoromethoxy)phenyl)-4-isopropyl-5-(1H-pyrazol-5-yl)-1,2,3,3a,4,8b-hexahydrocyclopenta[b]indole-7-carboxamide], the GI50 came to 15 nM at BaF3(WT) and 354 nM on BaF3 (T315I mutant).

Consider `CC(C)N1c2c(-c3ccn[nH]3)cc(C(=O)Nc3ccc(OC(F)(F)Cl)cc3)cc2C2CC(O)C(O)C21` (stereo not shown) [Compound 3, N-(4-(chlorodifluoromethoxy)phenyl)-2,3-dihydroxy-4-isopropyl-5-(1H-pyrazol-5-yl)-1,2,3,3a,4,8b-hexahydrocyclopenta[b]indole-7-carboxamide], for which the GI50 at BaF3(WT) came out at 36 nM; on BaF3 (T315I mutant) it was 177 nM.

On to `CC(=O)NC1CCC2c3cc(C(=O)Nc4ccc(OC(F)(F)Cl)cc4)cc(-c4ccn[nH]4)c3N(C(C)C)C12` (stereo not shown) [Compound 4, 3-acetamido-N-(4-(chlorodifluoromethoxy)phenyl)-4-isopropyl-5-(1H-pyrazol-5-yl)-1,2,3,3a,4,8b-hexahydrocyclopenta[b]indole-7-carboxamide], for which the GI50 amounted to 14 nM at BaF3(WT) and 71 nM on BaF3 (T315I mutant).

Take `CC(=O)N[C@@H]1CC[C@H]2c3cc(C(=O)Nc4ccc(OC(F)(F)Cl)cc4)cc(-c4ccn[nH]4)c3N(C(C)C)[C@@H]12` [Compound 4-A, (3R,3aR,8bS)-3-acetamido-N-(4-(chlorodifluoromethoxy)phenyl)-4-isopropyl-5-(1H-pyrazol-5-yl)-1,2,3,3a,4,8b-hexahydrocyclopenta[b]indole-7-carboxamide]: the GI50 was determined as 3 nM at BaF3(WT) and 35 nM on BaF3 (T315I mutant).

Regarding `CC(=O)N[C@H]1CC[C@@H]2c3cc(C(=O)Nc4ccc(OC(F)(F)Cl)cc4)cc(-c4ccn[nH]4)c3N(C(C)C)[C@H]12` [Compound 4-B, (3S,3aS,8bR)-3-acetamido-N-(4-(chlorodifluoromethoxy)phenyl)-4-isopropyl-5-(1H-pyrazol-5-yl)-1,2,3,3a,4,8b-hexahydrocyclopenta[b]indole-7-carboxamide], the results for the GI50 on BaF3(WT) and on BaF3 (T315I mutant) were 535 nM and 1270 nM, respectively.

With `CNS(=O)(=O)NC1CCC2c3cc(C(=O)Nc4ccc(OC(F)(F)Cl)cc4)cc(-c4ccn[nH]4)c3N(C(C)C)C12` (stereo not shown) [Compound 5], the GI50 was 34 nM at BaF3(WT) and 144 nM on BaF3 (T315I mutant).

As to `CC(C)N1c2c(-c3ccn[nH]3)cc(C(=O)Nc3ccc(OC(F)(F)Cl)cc3)cc2C2CCC(NS(C)(=O)=O)C21` (stereo not shown) [Compound 6], the GI50 on BaF3(WT) was 67 nM; at BaF3 (T315I mutant), 154 nM.

Turning to `CC(C)C(=O)NC1CCC2c3cc(C(=O)Nc4ccc(OC(F)(F)Cl)cc4)cc(-c4ccn[nH]4)c3N(C(C)C)C12` (stereo not shown) [Compound 7], the GI50 on BaF3(WT) was found to be 14 nM; on BaF3 (T315I mutant), 142 nM.

With `COCC(=O)NC1CCC2c3cc(C(=O)Nc4ccc(OC(F)(F)Cl)cc4)cc(-c4ccn[nH]4)c3N(C(C)C)C12` (stereo not shown) [Compound 9], the GI50 stood at 17 nM on BaF3(WT) and 206 nM on BaF3 (T315I mutant).

As for `CC(C)N1c2c(-c3ccn[nH]3)cc(C(=O)Nc3ccc(OC(F)(F)Cl)cc3)cc2C2CCC(NC(=O)N3CCOCC3)C21` (stereo not shown) [Compound 10], the GI50 on BaF3(WT) is 31 nM; at BaF3 (T315I mutant), 29 nM.

For the molecule `CNC(=O)NC1CCC2c3cc(C(=O)Nc4ccc(OC(F)(F)Cl)cc4)cc(-c4ccn[nH]4)c3N(C(C)C)C12` (stereo not shown) [Compound 11], the GI50 at BaF3(WT) stood at 53 nM; at BaF3 (T315I mutant), 64 nM.

For the molecule `CC(C)N1c2c(-c3ccn[nH]3)cc(C(=O)Nc3ccc(OC(F)(F)Cl)cc3)cc2C2CCC(NS(=O)(=O)N(C)C)C21` (stereo not shown) [Compound 12], the GI50 at BaF3(WT) came to 10 nM; at BaF3 (T315I mutant), 216 nM.

As for `CC(C)N1c2c(-c3ccn[nH]3)cc(C(=O)Nc3ccc(OC(F)(F)Cl)cc3)cc2C2CCC(NS(=O)(=O)N3CCOCC3)C21` (stereo not shown) [Compound 13], the GI50 on BaF3(WT) was 12 nM; at BaF3 (T315I mutant), 122 nM.

Take `CC(C)N1c2c(-c3ccn[nH]3)cc(C(=O)Nc3ccc(OC(F)(F)Cl)cc3)cc2C2CCC(NC(=O)N3CCN(C)CC3)C21` (stereo not shown) [Compound 14]: the values for the GI50 on BaF3(WT) and at BaF3 (T315I mutant) were 41 nM and 208 nM, respectively.

Take `CC(C)N1c2c(-c3ccn[nH]3)cc(C(=O)Nc3ccc(OC(F)(F)Cl)cc3)cc2C2CCC(NS(=O)(=O)N3CCN(C)CC3)C21` (stereo not shown) [Compound 15]: the GI50 on BaF3(WT) was determined as 35 nM; on BaF3 (T315I mutant) it was 346 nM.

Turning to `CC(C)N1c2c(-c3ccn[nH]3)cc(C(=O)Nc3ccc(OC(F)(F)Cl)cc3)cc2C2CCC(NS(=O)(=O)N3CCCCC3)C21` (stereo not shown) [Compound 16], the GI50 was 12 nM at BaF3(WT) and 252 nM at BaF3 (T315I mutant).

In the case of `CC(C)N1c2c(-c3ccn[nH]3)cc(C(=O)Nc3ccc(OC(F)(F)Cl)cc3)cc2C2CCC(NS(=O)(=O)c3nnc[nH]3)C21` (stereo not shown) [Compound 17], the figures for the GI50 at BaF3(WT) and on BaF3 (T315I mutant) were 1060 nM and 1670 nM, respectively.

As to `COCCS(=O)(=O)NC1CCC2c3cc(C(=O)Nc4ccc(OC(F)(F)Cl)cc4)cc(-c4ccn[nH]4)c3N(C(C)C)C12` (stereo not shown) [Compound 18], the GI50 on BaF3(WT) is 13 nM; on BaF3 (T315I mutant) it was 126 nM.

In the case of `CC(C)NS(=O)(=O)NC1CCC2c3cc(C(=O)Nc4ccc(OC(F)(F)Cl)cc4)cc(-c4ccn[nH]4)c3N(C(C)C)C12` (stereo not shown) [Compound 19], the values for the GI50 at BaF3(WT) and on BaF3 (T315I mutant) were 6 nM and 97 nM, respectively.

For the molecule `CC(=O)N[C@@H]1CC[C@H]2c3cc(C(=O)Nc4ccc(OC(F)(F)Cl)cc4)cc(-c4cncnc4)c3N(C(C)C)[C@@H]12` [Compound 20-A, (3R,3aR,8bS)-3-acetamido-N-(4-(chlorodifluoromethoxy)phenyl)-4-isopropyl-5-(pyrimidin-5-yl)-1,2,3,3a,4,8b-hexahydrocyclopenta[b]indole-7-carboxamide], the values for the GI50 on BaF3(WT) and on BaF3 (T315I mutant) were 42 nM and 29 nM, respectively.

As to `CC(=O)N[C@H]1CC[C@@H]2c3cc(C(=O)Nc4ccc(OC(F)(F)Cl)cc4)cc(-c4cncnc4)c3N(C(C)C)[C@H]12` [Compound 20-B, (3S,3aS,8bR)-3-acetamido-N-(4-(chlorodifluoromethoxy)phenyl)-4-isopropyl-5-(pyrimidin-5-yl)-1,2,3,3a,4,8b-hexahydrocyclopenta[b]indole-7-carboxamide], the GI50 at BaF3(WT) was found to be 365 nM; at BaF3 (T315I mutant), 1380 nM.

As for `CC(=O)NC1CCC2c3cc(C(=O)Nc4ccc(OC(F)(F)Cl)cc4)cc(-c4cncnc4)c3N(C(C)C)C12` (stereo not shown) [Compound 20], the GI50 at BaF3(WT) is 9 nM; at BaF3 (T315I mutant), 44 nM.

Take `CC(=O)NC1CCC2c3cc(C(=O)Nc4ccc(OC(F)(F)Cl)cc4)cc(-c4ccncc4)c3N(C(C)C)C12` (stereo not shown) [Compound 21]: the GI50 on BaF3(WT) came to 27 nM; at BaF3 (T315I mutant) it was 176 nM.

In the case of `CC(=O)N[C@@H]1CC[C@H]2c3cc(C(=O)Nc4ccc(OC(F)(F)Cl)cc4)cc(-c4ccn[nH]4)c3N(CC(C)(C)C)[C@@H]12` [Compound 22-A, (3R,3aR,8bS)-3-acetamido-N-(4-(chlorodifluoromethoxy)phenyl)-4-neopentyl-5-(1H-pyrazol-5-yl)-1,2,3,3a,4,8b-hexahydrocyclopenta[b]indole-7-carboxamide], the GI50 worked out at 3 nM on BaF3(WT) and 21 nM at BaF3 (T315I mutant).

In the case of `CC(=O)N[C@H]1CC[C@@H]2c3cc(C(=O)Nc4ccc(OC(F)(F)Cl)cc4)cc(-c4ccn[nH]4)c3N(CC(C)(C)C)[C@H]12` [Compound 22-B, (3S,3aS,8bR)-3-acetamido-N-(4-(chlorodifluoromethoxy)phenyl)-4-neopentyl-5-(1H-pyrazol-5-yl)-1,2,3,3a,4,8b-hexahydrocyclopenta[b]indole-7-carboxamide], the figures for the GI50 on BaF3(WT) and on BaF3 (T315I mutant) were 482 nM and 1010 nM, respectively.

Turning to `CC(=O)NC1CCC2c3cc(C(=O)Nc4ccc(OC(F)(F)Cl)cc4)cc(-c4ccn[nH]4)c3N(CC(C)(C)C)C12` (stereo not shown) [Compound 22], the figures for the GI50 at BaF3(WT) and at BaF3 (T315I mutant) were 3 nM and 21 nM, respectively.

With `CC(=O)NC1CCC2c3cc(C(=O)Nc4ccc(OC(F)(F)Cl)cc4)cc(-c4ccn[nH]4)c3N(CC(C)C)C12` (stereo not shown) [Compound 23], the figures for the GI50 at BaF3(WT) and at BaF3 (T315I mutant) were 10 nM and 81 nM, respectively.

Take `CC(C)N1c2c(-c3ccn[nH]3)cc(C(=O)Nc3ccc(OC(F)(F)Cl)cc3)cc2C2CCC(NS(=O)(=O)C3CC3)C21` (stereo not shown) [Compound 24]: the GI50 on BaF3(WT) came out at 17 nM; on BaF3 (T315I mutant) it was 114 nM.

Take `CC(C)N1c2c(-c3ccn[nH]3)cc(C(=O)Nc3ccc(OC(F)(F)Cl)cc3)cc2C2CCC(NS(=O)(=O)C3CCOCC3)C21` (stereo not shown) [Compound 25]: the GI50 at BaF3(WT) amounted to 15 nM; on BaF3 (T315I mutant), 183 nM.

As to `CC(=O)N[C@@H]1CC[C@H]2c3cc(C(=O)Nc4ccc(OC(F)(F)Cl)cc4)cc(-c4cccnc4)c3N(C(C)C)[C@@H]12` [Compound 26-A, (3R,3aR,8bS)-3-acetamido-N-(4-(chlorodifluoromethoxy)phenyl)-4-isopropyl-5-(pyridin-3-yl)-1,2,3,3a,4,8b-hexahydrocyclopenta[b]indole-7-carboxamide], the results for the GI50 at BaF3(WT) and at BaF3 (T315I mutant) were 6 nM and 41 nM, respectively.

For `CC(=O)N[C@H]1CC[C@@H]2c3cc(C(=O)Nc4ccc(OC(F)(F)Cl)cc4)cc(-c4cccnc4)c3N(C(C)C)[C@H]12` [Compound 26-B, (3S,3aS,8bR)-3-acetamido-N-(4-(chlorodifluoromethoxy)phenyl)-4-isopropyl-5-(pyridin-3-yl)-1,2,3,3a,4,8b-hexahydrocyclopenta[b]indole-7-carboxamide], the GI50 was found to be 186 nM on BaF3(WT) and 956 nM on BaF3 (T315I mutant).
